Measured values as given in patent US11446282B2, “Methods of treating mixed dyslipidemia and hypertriglycertdemia” (Kowa Company, Ltd., priority 2017, dated 2022).

Tested on: dyslipidemic patients with renal impairment
Test: Example 3 phase III 52-week trial: cholesterol in lipoprotein subclasses by HPLC
Type: in vivo, human
Settings: for Small LDL-C Week 52 (LOCF) / VLDL-C % Change from baseline at Week 52 (LOCF) / VLDL-C Week 52 (LOCF) / Very large HDL-C % Change from baseline at Week 52 (LOCF) / Very large HDL-C Week 52 (LOCF) / Very small HDL-C % Change from baseline at Week 52 (LOCF) / Very small HDL-C Week 52 (LOCF) / Very small LDL-C % Change from baseline at Week 52 (LOCF) / Very small LDL-C Week 52 (LOCF) / CM-C % Change from baseline at Week 52 (LOCF) / CM-C Week 52 (LOCF) / Large HDL-C % Change from baseline at Week 52 (LOCF) / Large HDL-C Week 52 (LOCF) / Large LDL-C % Change from baseline at Week 52 (LOCF) / Large LDL-C Week 52 (LOCF) / Medium HDL-C % Change from baseline at Week 52 (LOCF) / Medium HDL-C Week 52 (LOCF) / Medium LDL-C % Change from baseline at Week 52 (LOCF) / Medium LDL-C Week 52 (LOCF) / Small HDL-C % Change from baseline at Week 52 (LOCF) / Small HDL-C Week 52 (LOCF) / Small LDL-C % Change from baseline at Week 52 (LOCF): 0.2 (0.4) mg/day
Method: This was a multicenter, single-arm, open-label, phase III trial. The inclusion criteria were as follows: (1) patients with dyslipidemia aged >20 years at the time of informed consent; (2) men and postmenopausal women; (3) fasting serum TG≥1.70 mmol/L (150 mg/dL) at two consecutive measurements during screening; and (4) patients who followed dietary and physical exercise guidance for >12 weeks before enrollment.
The major exclusion criteria were as follows: (1) patients with fasting serum TG≥5.65 mmol/L (500 mg/dL) during screening; (2) patients with poorly controlled diabetes mellitus (hemoglobin A1c [HbA1c]≥10.5%); (3) patients with concurrent poorly controlled thyroid disease; (4) men with serum creatinine ≥2.5 mg/dL and women with serum creatinine ≥2.0 mg/dL during screening who were already on statin therapy; (5) patients with eGFR<45 mL/min/1.73 m^2 during screening who were already on statin therapy; (6) patients with CK>5ULN (270 IU/L for men, 150 IU/L for women) during screening who were already on statin therapy; (7) patients with serious liver disease (cirrhosis Child-Pugh Class B or higher); (8) patients with gallstones or serious biliary tract disease; (9) patients who had suffered an acute myocardial infarction or stroke within three months before informed consent; and (10) patients with New York Heart Association class III or IV heart failure.
During the screening period (8 weeks prior to treatment initiation), tests were performed twice to determine patient eligibility. Thereafter, eligible patients orally received pemafibrate 0.2 mg/day (twice daily) for 52 weeks. From week 12 of the treatment period onwards, the investigators were instructed that the dose could be increased from 0.2 mg/day to 0.4 mg/day (twice daily) if there was an inadequate response to the initial dose based on fasting serum TG levels ≥1.70 mmol/L (150 mg/dL). Fasting blood and urine samples were collected at each visit. Blood and urine sample in patients with hemodialysis were collected just before dialysis. LDL-C levels were measured using the direct method. […]
The primary efficacy endpoint was the percent change in fasting serum TG from baseline to the last evaluation point. The primary safety endpoints were the incidence of an AE or ADR occurring after drug administration during the study. Secondary efficacy endpoints included percent changes in lipid variables and changes in inflammation variables at week 52 [using the last-observation-carried-forward (LOCF)]. Secondary safety endpoints included changes in the levels of aspartate aminotransferase (AST), ALT, -GT, ALP, serum creatinine, eGFR, and CK at week 52. Each baseline value was defined as (1) the mean of the corresponding values in the first and second tests at the screening examination and at week 0 of the treatment period for fasting serum TG, HDL-C, total cholesterol (TC), LDL-C, and non-HDL-C; and (2) the value at week 0 of the treatment period for the other secondary variables.
The numbers of patients with AEs and ADRs and the incidences of AEs and ADRs were calculated in the analysis of primary safety endpoints. For the secondary efficacy endpoints, one-sample t-tests or Wilcoxon signed-rank tests [for high-sensitivity C-reactive protein (hsCRP) and IL-1] were performed. The secondary safety endpoints were analyzed with Wilcoxon signed-rank tests. A two-sided significance level of 0.05 was used. SAS v. 9.3 (SAS Institute Inc., Cary, N.C., USA) was used for these analyses. Where indicated, the data are expressed as means±standard deviation (SD).

[1] = lowest eGFR group compared with other groups

In the case of `CC[C@@H](Oc1cccc(CN(CCCOc2ccc(OC)cc2)c2nc3ccccc3o2)c1)C(=O)O` [Pemafibrate, (2R)-2-[3-({1,3-benzoxazol-2-yl[3-(4-methoxyphenoxy)propyl]amino}methyl)phenoxy]butanoic acid], the “Small LDL-C Week 52 (LOCF)” value (eGFR G2 (≥60 and <90)) is reported as 0.522 mmol/L, the “VLDL-C % Change from baseline at Week 52 (LOCF)” value (shortened to “VLDL-C % Change from baseline”) (eGFR G2 (≥60 and <90)) is reported as −25.3% and the “VLDL-C Week 52 (LOCF)” value (eGFR G2 (≥60 and <90)) is reported as 0.834 mmol/L. The “Very large HDL-C % Change from baseline at Week 52 (LOCF)” value (shortened to “Very large HDL-C % Change from baseline”) (eGFR G2 (≥60 and <90)) was 4.1%, the “Very large HDL-C Week 52 (LOCF)” value (eGFR G2 (≥60 and <90)) was 0.048 mmol/L and the “Very small HDL-C % Change from baseline at Week 52 (LOCF)” value (“Very small HDL-C % Change from baseline” for short) (eGFR G2 (≥60 and <90)) was 30.9%. For the same compound, the “Very small HDL-C Week 52 (LOCF)” value (eGFR G2 (≥60 and <90)) was 0.181 mmol/L, the “Very small LDL-C % Change from baseline at Week 52 (LOCF)” value (“Very small LDL-C % Change from baseline” below) (eGFR G2 (≥60 and <90)) was −9.7% and the “Very small LDL-C Week 52 (LOCF)” value (eGFR G2 (≥60 and <90)) was 0.211 mmol/L. For the same compound, the “CM-C % Change from baseline at Week 52 (LOCF)” value (eGFR G3a-G3b (≥30 and <60)) was −67.7%, the “CM-C Week 52 (LOCF)” value (eGFR G3a-G3b (≥30 and <60)) was 0.038 mmol/L and the “Large HDL-C % Change from baseline at Week 52 (LOCF)” value (eGFR G3a-G3b (≥30 and <60)) was −4.9%. For the same compound, the “Large HDL-C Week 52 (LOCF)” value (eGFR G3a-G3b (≥30 and <60)) was 0.124 mmol/L, the “Large LDL-C % Change from baseline at Week 52 (LOCF)” value (eGFR G3a-G3b (≥30 and <60)) was 59.1% and the “Large LDL-C Week 52 (LOCF)” value (eGFR G3a-G3b (≥30 and <60)) was 0.720 mmol/L. For the same compound, the “Medium HDL-C % Change from baseline at Week 52 (LOCF)” value (eGFR G3a-G3b (≥30 and <60)) was 20.6%, the “Medium HDL-C Week 52 (LOCF)” value (eGFR G3a-G3b (≥30 and <60)) was 0.447 mmol/L and the “Medium LDL-C % Change from baseline at Week 52 (LOCF)” value (eGFR G3a-G3b (≥30 and <60)) was 18.9%. The “Medium LDL-C Week 52 (LOCF)” value (eGFR G3a-G3b (≥30 and <60)) was 1.127 mmol/L, the “Small HDL-C % Change from baseline at Week 52 (LOCF)” value (eGFR G3a-G3b (≥30 and <60)) was 24.6% and the “Small HDL-C Week 52 (LOCF)” value (eGFR G3a-G3b (≥30 and <60)) was 0.467 mmol/L. The “Small LDL-C % Change from baseline at Week 52 (LOCF)” value (eGFR G3a-G3b (≥30 and <60)) was −18.9%, the “Small LDL-C Week 52 (LOCF)” value (eGFR G3a-G3b (≥30 and <60)) was 0.501 mmol/L and the “VLDL-C % Change from baseline” value (eGFR G3a-G3b (≥30 and <60)) was −22.9%. For the same compound, the “VLDL-C Week 52 (LOCF)” value (eGFR G3a-G3b (≥30 and <60)) was 0.892 mmol/L, the “Very large HDL-C % Change from baseline” value (eGFR G3a-G3b (≥30 and <60)) was 5.9% and the “Very large HDL-C Week 52 (LOCF)” value (eGFR G3a-G3b (≥30 and <60)) was 0.051 mmol/L. For the same compound, the “Very small HDL-C % Change from baseline” value (eGFR G3a-G3b (≥30 and <60)) was 19.7%, the “Very small HDL-C Week 52 (LOCF)” value (eGFR G3a-G3b (≥30 and <60)) was 0.180 mmol/L and the “Very small LDL-C % Change from baseline” value (eGFR G3a-G3b (≥30 and <60)) was −15.8%. For the same compound, the “Very small LDL-C Week 52 (LOCF)” value (eGFR G3a-G3b (≥30 and <60)) was 0.207 mmol/L, the “CM-C % Change from baseline at Week 52 (LOCF)” value (eGFR G4-G5 (<30)) was −79.4% and the “CM-C Week 52 (LOCF)” value (eGFR G4-G5 (<30)) was 0.039 mmol/L. The “Large HDL-C % Change from baseline at Week 52 (LOCF)” value (eGFR G4-G5 (<30)) was 5.2%, the “Large HDL-C Week 52 (LOCF)” value (eGFR G4-G5 (<30)) was 0.096 mmol/L and the “Large LDL-C % Change from baseline at Week 52 (LOCF)” value (eGFR G4-G5 (<30)) was 39.9%. The “Large LDL-C Week 52 (LOCF)” value (eGFR G4-G5 (<30)) was 0.689 mmol/L, the “Medium HDL-C % Change from baseline at Week 52 (LOCF)” value (eGFR G4-G5 (<30)) was 53.2% and the “Medium HDL-C Week 52 (LOCF)” value (eGFR G4-G5 (<30)) was 0.336 mmol/L. For the same compound, the “Medium LDL-C % Change from baseline at Week 52 (LOCF)” value (eGFR G4-G5 (<30)) was −2.8%, the “Medium LDL-C Week 52 (LOCF)” value (eGFR G4-G5 (<30)) was 0.920 mmol/L and the “Small HDL-C % Change from baseline at Week 52 (LOCF)” value (eGFR G4-G5 (<30)) was 39.1%. For the same compound, the “Small HDL-C Week 52 (LOCF)” value (eGFR G4-G5 (<30)) was 0.395 mmol/L, the “Small LDL-C % Change from baseline at Week 52 (LOCF)” value (eGFR G4-G5 (<30)) was −38.6% and the “Small LDL-C Week 52 (LOCF)” value (eGFR G4-G5 (<30)) was 0.381 mmol/L. For the same compound, the “VLDL-C % Change from baseline” value (eGFR G4-G5 (<30)) was −28.7%, the “VLDL-C Week 52 (LOCF)” value (eGFR G4-G5 (<30)) was 1.076 mmol/L and the “Very large HDL-C % Change from baseline” value (eGFR G4-G5 (<30)) was 17.1%. For the same compound, the “Very large HDL-C Week 52 (LOCF)” value (eGFR G4-G5 (<30)) was 0.044 mmol/L, the “Very small HDL-C % Change from baseline” value (eGFR G4-G5 (<30)) was 23.5% and the “Very small HDL-C Week 52 (LOCF)” value (eGFR G4-G5 (<30)) was 0.155 mmol/L. The “Very small LDL-C % Change from baseline” value (eGFR G4-G5 (<30)) was −33.4%, the “Very small LDL-C Week 52 (LOCF)” value (eGFR G4-G5 (<30)) was 0.158 mmol/L and the “high-density lipoprotein cholesterol change (observation)” value (lowest eGFR group) was “increase”. The “VLDL-C change (observation)” value [1] was “greatest reduction”, the “chylomicron (CM-C) change (observation)” value [1] was “greatest reduction” and the “small low-density lipoprotein cholesterol change (observation)” value [1] was “greatest reduction”.
